# Laboratory results reported in patent publication US9834525B2, “Inhibitors of paxillin function and related compositions and methods” (UNIVERSITY OF TENNESSEE RESEARCH FOUNDATION, priority 2015, dated 2017).
# “Also recorded” adds a separate entry of the source.
# Experiments:
# CYP3A4 = molecular target: T1, CYP3A4 (Homo sapiens, UniProt P08684); test: CYP-450 interaction study in pooled human liver microsomes, CYP3A4; format: in vitro ADME; conditions: 1 μM
# T1 construct: from tissue; host or cells: pooled human liver microsomes
# T1 sequence (P08684 whole entry): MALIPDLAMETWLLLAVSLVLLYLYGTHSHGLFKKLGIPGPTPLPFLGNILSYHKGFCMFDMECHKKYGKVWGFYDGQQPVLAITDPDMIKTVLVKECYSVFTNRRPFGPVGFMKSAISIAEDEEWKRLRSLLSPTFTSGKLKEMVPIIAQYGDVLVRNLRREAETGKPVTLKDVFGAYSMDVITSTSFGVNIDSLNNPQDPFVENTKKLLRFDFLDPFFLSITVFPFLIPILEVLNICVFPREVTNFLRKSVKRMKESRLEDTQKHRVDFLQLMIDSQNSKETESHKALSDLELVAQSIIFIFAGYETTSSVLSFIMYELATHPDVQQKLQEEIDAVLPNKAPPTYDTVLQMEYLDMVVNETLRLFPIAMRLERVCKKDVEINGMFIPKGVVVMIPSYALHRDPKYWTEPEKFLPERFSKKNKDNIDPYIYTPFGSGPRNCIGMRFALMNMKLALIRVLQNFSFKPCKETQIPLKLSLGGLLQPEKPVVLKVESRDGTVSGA
# Experimental: CYP-450 interaction studies were conducted in pooled human liver microsomes (FIG. 8). CYP-450 inhibition (%) by compound (II-4) (1 μM) was compared to control inhibitors (1 μM) for the most common CYP-450 isoforms, CYP3A4, CYP2C9, CYP2D6, CYP2C19, and CYP1A2.
# CYP-450 interaction studies were conducted in pooled human liver microsomes (FIG. 24). CYP-450 inhibition (%) by compound (II-4) (1 μM) was compared to control inhibitors (1 μM) for the most common CYP-450 isoforms, 3A4, 2C9, 2D6, 2C19, and 1A2.
# paxillin = test: Murine OIR model, Western blot of retinal homogenates; format: in vivo, mouse; conditions: daily ocular administration 0.5 mg/kg or 5 mg/kg, P17
# Source text: Topical delivery of compound (II-4) using an ocular ME was chosen for several reasons. First, intravitreal injection is technically challenging and, unlike intraocular delivery of proteins, is unnecessary for delivery of small molecules. […] The murine OIR model was used to examine the effect of compound (II-4) on the natural history of VEGF-induced proliferative retinopathy. Briefly, pups were exposed to 75% oxygen at post-natal day 7 (P7) for 5 days and then returned to normal oxygen at P12. Mice received daily ocular administration of either compound (II-4) (0.5 mg/kg or 5 mg/kg) or vehicle (ME) from P12 to P17. Eyes were enucleated at P17 and retinal whole-mounts stained for endothelial cells followed by quantification of avascular area and vascular tuft formation.
# FIG. 22: Oxygen-Induced Retinopathy (OIR). (A:) P17 retinal whole-mounts were stained for endothelial cells. […] Data represent mean (±SD). N=8-14/group. […] (C): Quantitation of panel A neovascular area. (D): Quantitation of panel A avascular area. (E): Quantitation of panel B total paxillin.
# [1] = test system: retinal endothelial cells (REC); test: VEGF-induced REC proliferation, WST-1 metabolic assay; format: cell-based, human
# Experimental: To investigate the potential of compound (II-4) affecting the proliferative capacity of RECs treated with VEGF, proliferation was measured using the metabolic assay based on the tetrazolium salt, WST-1. […] To rule out the possibility that this observation was related to cytotoxicity, RECs were incubated with a high concentration of compound (II-4) (1 μM) for 24 hours. Cells were harvested and apoptosis measured with Annexin-V/Propidium Iodide (PI) staining and analyzed using flow cytometry.
# FIG. 18: REC Proliferation and Flow cytometry analysis of apoptosis in REC. A) VEGF-induced cellular proliferation was assessed using the WST-1 metabolic assay. […] (*P<0.0001). Nuclei were stained with DRAQ5 and imaged to show trend of decreasing proliferation. B) Apoptosis was measured using Annexin V/PI staining Compound (II-4) (1 μM) appears to be non-cytotoxic to retinal endothelial cells after 24 hour incubation (n≈10,000 cells).
# FIG. 21: REC Proliferation. […] (*, # P<0.001; Mean±SD, N=8/group).
# metastatic-UM cell = test: CFSE cellular proliferation, metastatic UM; format: cell-based, human; conditions: metastatic-UM cells; 96 hrs culture, 1 μM for the last 24 hrs
# Experimental: (§1) Harvested cells were resuspended at a concentration of 1.0×10^6 cells/mL in warm PBS/1% FBS. Cells were labeled with […] (Invitrogen) for 5 minutes at 37° C. then quenched on cold growth media (final volume 20 mL) for 10 minutes, twice. Cultured unlabeled cells were used as controls.
# (§2) To test the hypothesis that inhibition of paxillin will reduce cellular proliferation UM cell lines were labeled with carboxyfluorescein succunimidyl ester (CFSE), a cell tracking dye, and cultured for 96 hrs. A group of cells received treatment with compound (II-4) for the last 24 hours. Maximum CFSE fluorescence was controlled using labeled cells prior culture −0 hr. Negative control was established using unlabeled cells cultured in parallel. Histograms in FIG. 15D show 96 hrs cultured cells divided with a 1-log shift or reduction in CFSE intensity. […] Cell proliferation was not affected in the 92.1 cell line. […]
# (§3) FIG. 15: The paxillin inhibitor Compound (II-4) selectively affects cellular proliferation of primary UM cells that become metastatic. […] Unlabeled cells were used to control fluorescence. […] B. Quantitation of experiment +/−SD including primary UM that becomes metastatic (Mel 270), metastatic (OMM 2.1) and primary (92.1) UM cells. *P=0.0007 and **P=0.0005. […] Quantitation of VLA-4 protein levels +/−SD from n=3. […]
# Mel 270 primary-UM cells = test: CFSE cellular proliferation, Mel 270; format: cell-based, human; conditions: 96 hrs culture, 1 μM for the last 24 hrs
# Experimental: as §1, §2, §3
# [2] = Microsomal stability, pooled rat liver microsomes; format: in vitro ADME; conditions: 1 μM, 37° C., 60 min
# Experimental: (§4) Microsomal stability of compound (II-4) (1 μM) was assessed in pooled liver microsomes (human, mouse, and rat) (FIG. 7). Briefly, compound (II-4) was incubated in duplicate with microsomes at 37° C. Reactions contained microsomal protein in 100 mM potassium phosphate, 2 mM NADPH, 3 mM MgCl2, pH 7.4. NADPH was omitted to detect NADPH-free degradation. At 60 minutes, the reaction was stopped by adding ice-cold methanol containing internal standard. Samples were centrifuged to remove precipitated protein, and the supernatants were analyzed by LC/MS/MS to quantitate the remaining parent.
# as §4, with “23).” for “7).”, “min,” for “minutes,”, “(+” for “containing”, “standard).” for “standard.”
structure (smiles),measurement,setting,value
COc1cc(C2OC(=O)Nc3c2ccc2ccccc32)cc(OC)c1OC (stereo not shown) [compound II-4],"CYP-450 inhibition, CYP3A4",CYP3A4,lack of significant inhibition; also recorded: lacks significant inhibition
same,total paxillin in retinal homogenates,paxillin,dose-dependent reduction; also recorded: reduced total paxillin protein
same,VEGF-induced REC proliferation (FIG. 21),"[1]; Compound (II-4) (500 nM), LY294002 (1004), SU6656 (104), U0126 (104) [sic]",inhibited
same,VEGF-induced cellular proliferation (WST-1),[1]; increasing concentrations of compound (II-4),significant decrease; also recorded: significantly reduces cellular proliferation
same,cell proliferation (CFSE),metastatic-UM cell,reduction was not observed
same,cell proliferation (CFSE),Mel 270 primary-UM cells,caused a reduction in cell proliferation
same,microsomal stability (metabolism by cytochrome P-450 enzymes),[2],rapidly metabolized
